Assay results reported in ChEMBL document CHEMBL4184149, “Discovery and process development of a novel TACE inhibitor for the topical treatment of psoriasis” (Bioorg Med Chem, 2018).
pIC50: −log10 of the molar value. In brackets after ≈: the same amount, converted by molar mass.

What was measured:
[1] = target: Macrophage metalloelastase (Homo sapiens, UniProt P39900); experiment: Inhibition of MMP12 (unknown origin)
[2] = target: Voltage-gated inwardly rectifying potassium channel KCNH2 (Homo sapiens, UniProt Q12809); experiment: Inhibition of human ERG expressed in CHO-K1 cells assessed as reduction in tail current amplitude by patch clamp assay; format: cell-based
Chain of Voltage-gated inwardly rectifying potassium channel KCNH2 (Q12809 whole entry): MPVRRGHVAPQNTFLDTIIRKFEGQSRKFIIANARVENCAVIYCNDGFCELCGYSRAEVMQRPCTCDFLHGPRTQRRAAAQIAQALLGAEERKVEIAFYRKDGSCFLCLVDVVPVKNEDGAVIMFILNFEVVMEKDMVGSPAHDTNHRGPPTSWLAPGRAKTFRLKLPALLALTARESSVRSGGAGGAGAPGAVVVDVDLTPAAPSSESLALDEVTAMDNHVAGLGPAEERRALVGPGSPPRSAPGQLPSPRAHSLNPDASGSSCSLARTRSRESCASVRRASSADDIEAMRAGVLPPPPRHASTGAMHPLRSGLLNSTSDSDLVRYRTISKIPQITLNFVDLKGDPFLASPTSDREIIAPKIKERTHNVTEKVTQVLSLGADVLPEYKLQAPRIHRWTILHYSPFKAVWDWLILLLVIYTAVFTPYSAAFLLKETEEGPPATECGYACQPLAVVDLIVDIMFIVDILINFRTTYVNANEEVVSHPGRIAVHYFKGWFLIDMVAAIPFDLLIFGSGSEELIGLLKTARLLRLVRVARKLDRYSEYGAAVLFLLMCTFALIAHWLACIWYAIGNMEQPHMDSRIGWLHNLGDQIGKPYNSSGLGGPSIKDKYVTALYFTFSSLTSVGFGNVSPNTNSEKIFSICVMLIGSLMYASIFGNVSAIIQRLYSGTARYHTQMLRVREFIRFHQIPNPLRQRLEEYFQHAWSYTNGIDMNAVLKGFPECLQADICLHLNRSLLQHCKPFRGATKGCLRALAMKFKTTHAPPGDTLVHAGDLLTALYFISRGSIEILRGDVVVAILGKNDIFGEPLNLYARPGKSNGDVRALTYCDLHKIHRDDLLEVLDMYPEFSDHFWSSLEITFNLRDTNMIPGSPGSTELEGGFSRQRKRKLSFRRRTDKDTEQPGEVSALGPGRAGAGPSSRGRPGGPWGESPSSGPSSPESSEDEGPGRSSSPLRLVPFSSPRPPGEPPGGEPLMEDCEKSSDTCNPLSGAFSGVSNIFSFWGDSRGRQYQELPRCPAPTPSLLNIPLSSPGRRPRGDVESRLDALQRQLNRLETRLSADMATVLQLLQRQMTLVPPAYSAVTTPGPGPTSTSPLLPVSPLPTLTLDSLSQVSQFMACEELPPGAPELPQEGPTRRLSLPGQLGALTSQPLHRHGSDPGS

[3] = Fraction unbound in human plasma at 5 uM after 4 hrs by LC-MS/MS analysis; format: ADME, cell-free
[4] = Aqueous solubility of the compound in PBS at pH 7.4 at 20 degC after 24 hrs by HPLC analysis; format: physicochemical
[5] = target: T1, Disintegrin and metalloproteinase domain-containing protein 10 (Homo sapiens, UniProt O14672); experiment: Inhibition of ADAM10 (unknown origin)
T1 sequence (O14672 whole entry): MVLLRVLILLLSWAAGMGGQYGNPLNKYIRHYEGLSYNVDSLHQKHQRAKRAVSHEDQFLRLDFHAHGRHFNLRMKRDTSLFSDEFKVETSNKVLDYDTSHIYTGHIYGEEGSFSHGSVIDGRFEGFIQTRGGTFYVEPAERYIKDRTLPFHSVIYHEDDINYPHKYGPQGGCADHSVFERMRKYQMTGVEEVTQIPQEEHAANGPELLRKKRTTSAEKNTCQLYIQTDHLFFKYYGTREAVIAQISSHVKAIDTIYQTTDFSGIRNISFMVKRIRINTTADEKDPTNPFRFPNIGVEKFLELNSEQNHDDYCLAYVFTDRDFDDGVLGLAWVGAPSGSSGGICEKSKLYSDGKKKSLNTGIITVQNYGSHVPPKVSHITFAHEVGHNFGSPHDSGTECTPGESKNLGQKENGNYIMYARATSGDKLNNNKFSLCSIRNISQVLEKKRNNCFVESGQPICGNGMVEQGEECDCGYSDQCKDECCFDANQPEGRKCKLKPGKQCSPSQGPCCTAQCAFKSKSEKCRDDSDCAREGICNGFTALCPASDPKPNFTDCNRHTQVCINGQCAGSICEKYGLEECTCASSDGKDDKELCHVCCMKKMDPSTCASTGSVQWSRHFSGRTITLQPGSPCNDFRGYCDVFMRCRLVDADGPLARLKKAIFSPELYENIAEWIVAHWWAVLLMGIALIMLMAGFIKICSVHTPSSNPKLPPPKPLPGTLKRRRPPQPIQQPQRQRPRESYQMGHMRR

[6] = Stability of the compound in propylene glycol/ethanol96 at 0.1 mg/ml measured up to 3 months by HPLC analysis; format: physicochemical; details: read-out: Stability
[7] = Photoirritancy factor, ratio of EC50 for human neonatal keratinocytes under dark condition to EC50 for human neonatal keratinocytes under 5 J/cm2 UV light exposure; format: toxicity; details: read-out: Ratio EC50
[8] = target: Stromelysin-1 (Homo sapiens, UniProt P08254); experiment: Inhibition of MMP3 (unknown origin)
Chain of Stromelysin-1 (P08254 whole entry): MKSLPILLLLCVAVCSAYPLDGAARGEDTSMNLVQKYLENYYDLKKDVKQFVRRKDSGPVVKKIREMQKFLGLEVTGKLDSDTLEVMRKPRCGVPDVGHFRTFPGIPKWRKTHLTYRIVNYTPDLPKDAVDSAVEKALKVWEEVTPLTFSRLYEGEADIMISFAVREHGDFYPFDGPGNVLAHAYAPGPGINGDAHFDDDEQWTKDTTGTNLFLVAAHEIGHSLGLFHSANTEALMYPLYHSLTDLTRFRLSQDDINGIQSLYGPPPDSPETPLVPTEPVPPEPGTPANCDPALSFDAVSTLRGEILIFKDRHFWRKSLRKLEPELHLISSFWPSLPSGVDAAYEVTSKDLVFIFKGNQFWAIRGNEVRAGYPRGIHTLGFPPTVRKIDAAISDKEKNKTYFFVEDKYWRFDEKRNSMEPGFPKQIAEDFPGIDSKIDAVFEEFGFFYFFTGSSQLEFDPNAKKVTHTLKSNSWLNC

[9] = Intrinsic clearance in human hepatocytes assessed per million cells at 1 uM by LC-MS/MS analysis; format: ADME, cell-based, Hepatocyte; details: human hepatocytes, read-out: CLH
[10] = target: Collagenase 3 (Homo sapiens, UniProt P45452); experiment: Inhibition of MMP13 (unknown origin)
[11] = tested on: Salmonella typhimurium; experiment: Mutagenicity in Salmonella typhimurium TA100 in presence of rat S9 fraction by Ames test; format: toxicity, organism-based; details: salmonella enterica subsp. enterica serovar typhimurium
[12] = target: T2, Disintegrin and metalloproteinase domain-containing protein 17 (Homo sapiens, UniProt P78536); experiment: Inhibition of recombinant human TACE catalytic domain using Mca-Pro-Leu-Ala-Gln-Ala-Val-Dpa-Arg-Ser-Ser-Ser-Arg-NH2 as substrate after 2 hrs by fluorescence assay
T2 sequence (P78536 whole entry, the tested form may be a part): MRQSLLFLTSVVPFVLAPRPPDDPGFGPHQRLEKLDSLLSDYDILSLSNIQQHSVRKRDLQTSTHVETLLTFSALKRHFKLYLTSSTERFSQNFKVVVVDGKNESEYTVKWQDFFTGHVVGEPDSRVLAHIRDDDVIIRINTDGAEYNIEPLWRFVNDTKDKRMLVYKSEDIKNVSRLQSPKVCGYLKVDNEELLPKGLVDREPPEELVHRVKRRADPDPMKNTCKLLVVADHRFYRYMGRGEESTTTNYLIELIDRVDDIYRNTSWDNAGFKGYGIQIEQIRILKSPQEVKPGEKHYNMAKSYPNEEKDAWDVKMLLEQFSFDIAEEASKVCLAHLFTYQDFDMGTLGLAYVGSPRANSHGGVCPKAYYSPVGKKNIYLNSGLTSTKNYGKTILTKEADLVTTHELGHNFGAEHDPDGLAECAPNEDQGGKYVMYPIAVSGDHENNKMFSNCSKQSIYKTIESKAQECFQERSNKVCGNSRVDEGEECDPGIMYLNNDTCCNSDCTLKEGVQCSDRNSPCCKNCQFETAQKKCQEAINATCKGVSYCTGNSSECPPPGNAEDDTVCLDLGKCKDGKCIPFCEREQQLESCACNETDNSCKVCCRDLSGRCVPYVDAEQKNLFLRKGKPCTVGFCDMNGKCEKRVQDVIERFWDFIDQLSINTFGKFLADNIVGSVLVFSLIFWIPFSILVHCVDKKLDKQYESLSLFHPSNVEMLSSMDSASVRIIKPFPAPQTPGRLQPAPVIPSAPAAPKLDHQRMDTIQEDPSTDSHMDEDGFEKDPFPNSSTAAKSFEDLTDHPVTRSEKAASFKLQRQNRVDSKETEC

[13] = target: T2, Disintegrin and metalloproteinase domain-containing protein 17; experiment: Inhibition of TACE in human PBMC assessed as reduction in LPS-induced TNFalpha production incubated overnight by HTRF assay; format: cell-based
[14] = tested on: TK6; experiment: Genotoxicity in human TK6 cells in absence of rat S9 fraction by Giemsa staining based micronucleus assay; format: toxicity, cell-based
[15] = target: Matrix metalloproteinase-9 (Homo sapiens, UniProt P14780); experiment: Inhibition of MMP9 (unknown origin)
Chain of Matrix metalloproteinase-9 (P14780 whole entry): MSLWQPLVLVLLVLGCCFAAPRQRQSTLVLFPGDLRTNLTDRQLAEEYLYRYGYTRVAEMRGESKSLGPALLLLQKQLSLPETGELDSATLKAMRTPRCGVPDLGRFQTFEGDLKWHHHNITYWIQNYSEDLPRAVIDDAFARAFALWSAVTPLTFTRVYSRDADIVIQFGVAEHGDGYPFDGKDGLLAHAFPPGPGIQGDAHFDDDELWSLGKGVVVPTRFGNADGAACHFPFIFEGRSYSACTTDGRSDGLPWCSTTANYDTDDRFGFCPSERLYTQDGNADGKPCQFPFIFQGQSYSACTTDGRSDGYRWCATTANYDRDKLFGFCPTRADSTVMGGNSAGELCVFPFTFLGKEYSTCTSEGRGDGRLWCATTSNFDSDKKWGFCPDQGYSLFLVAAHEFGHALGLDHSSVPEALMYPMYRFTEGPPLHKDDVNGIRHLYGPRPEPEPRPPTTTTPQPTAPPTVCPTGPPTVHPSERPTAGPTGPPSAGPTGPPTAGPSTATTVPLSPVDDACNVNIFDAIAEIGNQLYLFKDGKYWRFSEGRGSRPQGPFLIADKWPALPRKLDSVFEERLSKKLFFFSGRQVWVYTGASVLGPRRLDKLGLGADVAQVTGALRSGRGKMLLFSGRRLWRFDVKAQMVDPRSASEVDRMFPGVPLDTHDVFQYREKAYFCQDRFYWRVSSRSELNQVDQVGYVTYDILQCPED

[16] = target: T3, Matrilysin (Homo sapiens, UniProt P09237); experiment: Inhibition of MMP7 (unknown origin)
T3 sequence (P09237 whole entry): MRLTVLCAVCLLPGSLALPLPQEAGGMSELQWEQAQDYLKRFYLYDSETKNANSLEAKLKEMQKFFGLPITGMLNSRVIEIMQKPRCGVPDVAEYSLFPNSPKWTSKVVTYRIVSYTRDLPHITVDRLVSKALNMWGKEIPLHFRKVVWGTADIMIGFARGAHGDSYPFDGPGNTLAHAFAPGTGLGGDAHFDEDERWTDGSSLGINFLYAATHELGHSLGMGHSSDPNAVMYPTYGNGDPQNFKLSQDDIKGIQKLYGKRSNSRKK

[17] = target: Neutrophil collagenase (Homo sapiens, UniProt P22894); experiment: Inhibition of MMP8 (unknown origin)
Chain of Neutrophil collagenase (P22894 whole entry): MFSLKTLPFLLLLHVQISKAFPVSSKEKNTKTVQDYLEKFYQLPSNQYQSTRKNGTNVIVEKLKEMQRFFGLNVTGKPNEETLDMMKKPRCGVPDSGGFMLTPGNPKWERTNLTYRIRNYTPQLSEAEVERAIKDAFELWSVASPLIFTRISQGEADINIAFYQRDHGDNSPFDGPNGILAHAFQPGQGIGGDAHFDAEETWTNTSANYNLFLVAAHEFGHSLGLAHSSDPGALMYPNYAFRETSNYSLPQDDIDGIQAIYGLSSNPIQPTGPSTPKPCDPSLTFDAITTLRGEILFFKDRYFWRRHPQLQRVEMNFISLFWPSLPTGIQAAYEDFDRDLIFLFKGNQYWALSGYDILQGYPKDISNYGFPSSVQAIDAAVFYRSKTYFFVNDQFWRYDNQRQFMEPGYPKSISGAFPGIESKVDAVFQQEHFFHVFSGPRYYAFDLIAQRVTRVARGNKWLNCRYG

[18] = target: Matrix metalloproteinase-14 (Homo sapiens, UniProt P50281); experiment: Inhibition of MMP14 (unknown origin)
[19] = target: T4, Disintegrin and metalloproteinase domain-containing protein 9 (Homo sapiens, UniProt Q13443); experiment: Inhibition of ADAM9 (unknown origin)
T4 sequence (Q13443 whole entry): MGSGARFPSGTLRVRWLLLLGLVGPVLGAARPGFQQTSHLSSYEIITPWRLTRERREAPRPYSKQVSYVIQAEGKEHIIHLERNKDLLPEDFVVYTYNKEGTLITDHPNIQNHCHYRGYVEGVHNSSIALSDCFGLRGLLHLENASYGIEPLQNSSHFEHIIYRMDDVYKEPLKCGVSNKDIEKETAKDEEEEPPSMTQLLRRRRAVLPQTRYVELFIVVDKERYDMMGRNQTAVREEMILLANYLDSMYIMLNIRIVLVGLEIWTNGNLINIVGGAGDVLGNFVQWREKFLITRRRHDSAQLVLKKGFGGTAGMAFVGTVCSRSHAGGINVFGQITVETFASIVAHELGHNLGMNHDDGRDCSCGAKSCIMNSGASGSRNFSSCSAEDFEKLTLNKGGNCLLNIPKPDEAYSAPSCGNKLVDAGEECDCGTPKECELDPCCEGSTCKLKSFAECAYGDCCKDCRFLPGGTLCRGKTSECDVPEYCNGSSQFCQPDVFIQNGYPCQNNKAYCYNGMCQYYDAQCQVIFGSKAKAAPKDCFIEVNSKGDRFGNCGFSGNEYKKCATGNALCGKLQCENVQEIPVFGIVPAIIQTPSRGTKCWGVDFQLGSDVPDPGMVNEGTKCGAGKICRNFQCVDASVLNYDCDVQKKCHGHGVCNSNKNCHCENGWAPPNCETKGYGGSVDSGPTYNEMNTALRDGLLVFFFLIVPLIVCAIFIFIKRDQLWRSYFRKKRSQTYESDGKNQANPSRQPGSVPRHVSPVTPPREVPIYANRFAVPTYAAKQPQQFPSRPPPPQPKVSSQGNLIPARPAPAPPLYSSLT

Chain of Macrophage metalloelastase (P39900 whole entry): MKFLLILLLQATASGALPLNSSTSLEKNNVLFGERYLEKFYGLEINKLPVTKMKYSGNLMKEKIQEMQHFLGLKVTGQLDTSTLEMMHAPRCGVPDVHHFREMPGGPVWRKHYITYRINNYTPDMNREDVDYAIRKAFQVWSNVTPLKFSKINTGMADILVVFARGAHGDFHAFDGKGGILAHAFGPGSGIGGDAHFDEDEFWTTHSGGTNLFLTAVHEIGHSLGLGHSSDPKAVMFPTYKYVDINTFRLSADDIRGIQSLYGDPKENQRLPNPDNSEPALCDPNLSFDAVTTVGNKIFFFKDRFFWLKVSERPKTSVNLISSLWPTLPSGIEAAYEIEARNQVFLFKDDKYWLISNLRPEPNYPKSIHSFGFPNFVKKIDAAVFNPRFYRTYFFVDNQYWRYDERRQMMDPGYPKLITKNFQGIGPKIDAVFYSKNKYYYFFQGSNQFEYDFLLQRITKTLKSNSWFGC

SMILES	pIC50 [1]	pIC50 [2]	fraction unbound at 4 h, 5 µM [3]	solubility at 24 h [4] [µM]	pIC50 [5]	remaining at 0.1 mg/ml [6] [%]	selectivity ratio [7]	pIC50 [8]	hepatocyte CLint at 1 µM [9] [µL/min/1e6 cells]	pIC50 [10]	Activity [11]	pIC50 [12]	pIC50 [13]	Activity [14]	pIC50 [15]	pIC50 [16]	pIC50 [17]	pIC50 [18]	pIC50 [19]
Cc1cc(COc2ccc(S(=O)(=O)N(C)C3(C(=O)NO)CN(C(=O)C(C)C)C3)cc2)c2ccccc2n1	7.89	< 4.00	0.019	84 (≈ 44.2 µg/mL)	6.02	99	1	7.05	8	5.89	Non-Toxic	8.40	8.05	Non-Toxic	5.68	6.74	5.59	5.19	7.05
Cc1cc(COc2ccc(S(=O)(=O)N(C)C3(C(=O)NO)CN(C(=O)CC(C)C)C3)cc2)c2ccccc2n1	8.22	< 4.00	0.003	62 (≈ 33.5 µg/mL)	5.89	99	1	7.05	14	5.92	Non-Toxic	8.15	7.48	Non-Toxic	5.66	6.68	5.43	5.36	6.32
